Results on 10 molecules are retold here after ChEMBL document CHEMBL1201862, “PubChem BioAssay data set” (2004).

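Compound exposure: 48 hours, 5 concentrations, 96-well plates. GI50 is the concentration that inhibits growth by half.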 Calls of active or inactive are those of the source. Rule as the data show it: active = GI50 up to about 1.1 µM and inactive = higher.

Holding throughout (assay): growth of human tumour cells (NCI), 48 h
The subject of assay [1] is PC-3.
The test system of assay [2] is 786-0.
In assay [3] the test system is SK-OV-3.
The subject of assay [4] is SN12C.
For assay [5], the system named is HCT-15.
Assay [6] deals with MDA-MB-231.
The test system of assay [7] is HCT-116.
Assay [8] deals with MCF7.
In assay [9] the test system is SF-268.
For assay [10], the system named is U-251.
For assay [11], the system named is ACHN.
Assay [12] has as its system OVCAR-5.
In assay [13] the test system is OVCAR-8.
Assay [14] concerns T47D.
Assay [15] concerns SK-MEL-28.
Assay [16] relates to A549.
For assay [17], the system named is NCI-H460.
Assay [18] deals with CCRF-CEM.
The test system of assay [19] is IGROV-1.
Assay [20] has as its system HL-60.

Take `COc1ccc2c3c([nH]c2c1)[C@H]1C[C@H]2[C@H](C[C@@H](O)[C@H](OC)[C@H]2C(=O)O)CN1CC3`: the GI50 in assay [1] is > 100 µM (inactive); in assay [2] it was > 100 µM (inactive); in assay [3] it was > 100 µM (inactive); in assay [4], > 100 µM (inactive); in [5] it was more than 100 µM; in assay [6], > 100 µM (inactive). The GI50 in assay [7], in assay [8], in assay [9], in assay [10], in assay [11] and in assay [12] was > 100 µM (inactive) in each case. The GI50 in assay [13], in assay [14], in assay [15], in [16], in assay [17] and in assay [18] was > 100 µM (inactive) each time. Besides, the GI50 in assay [19] was > 100 µM (inactive).
As for `O=C1c2scnc2-c2nccc3c2c1nc1ccccc13` [KUANONIAMINE A], the GI50 in [1] was 0.664 µM (active); in assay [2], 1.21 µM (inactive); in assay [3], 2.54 µM (inactive); in [4] it was 1.4 µM (inactive); in [5] it was 0.207 µM; in [6], 0.318 µM (active). For the same molecule, the GI50 was 0.272 µM (active) in assay [7]; 0.299 µM (active) in assay [8]; 1.78 µM (inactive) in assay [9]; 0.268 µM (active) in assay [10]; 0.955 µM (active) in assay [11]; 2.63 µM (inactive) in [12]. Also, the GI50 in [13] is 0.226 µM (active); in assay [14] it was 0.215 µM (active); in assay [15], 1.65 µM (inactive); in [16] it was 1.51 µM (inactive); in [17] it was 0.372 µM (active); in assay [18] it was 0.416 µM (active). For the same molecule, the GI50 in [19] is 0.774 µM (active).
For `CCOC(=O)[C@@]12C[C@](/C=C/OC)(O[Si](C)(C)C)[C@@]13c1cc(OC)c(OC)cc1CCN3C(=O)C2=O`, the GI50 is > 100 µM (inactive) in assay [1]; > 100 µM (inactive) in assay [2]; > 100 µM (inactive) in [3]; > 100 µM (inactive) in [4]; more than 100 µM in [5]; > 100 µM (inactive) in assay [6]. Also, the GI50 in [7], in assay [8], in assay [9], in assay [10], in assay [11] and in assay [12] was > 100 µM (inactive) throughout. Further, the GI50 in [13], in assay [14], in assay [15], in assay [16], in [17] and in assay [18] was > 100 µM (inactive) in each case. The GI50 in [19] is > 100 µM (inactive).
`CCOC(=O)C1(C/C=C\CBr)CCCCCCCCCCC1=O` (stereo not drawn): the GI50 in assay [1] is 10.4 µM (inactive); in assay [2] it was 6.34 µM (inactive); in assay [3] it was 16.8 µM (inactive); in assay [4], 12.6 µM (inactive); in assay [5] it was 16.7 µM; in assay [6], 3.36 µM (inactive). In addition, the GI50 in assay [7] is 17 µM (inactive); in assay [8], 12.9 µM (inactive); in assay [9], 11 µM (inactive); in assay [10], 7.01 µM (inactive); in assay [11], 15.6 µM (inactive); in assay [12], 16.2 µM (inactive). The GI50 is 14.5 µM (inactive) in [13]; 12.1 µM (inactive) in assay [14]; 15.7 µM (inactive) in assay [15]; 18 µM (inactive) in assay [16]; 15.5 µM (inactive) in [17]; 5.69 µM (inactive) in assay [18]. In assay [19], the GI50 is 2.94 µM (inactive).
Turning to `CC[C@@H](C)[C@H]([C@H](CC(=O)N1CCC[C@@H]1[C@@H](OC)[C@H](C)C(=O)N[C@H](Cc1ccccc1)c1nccs1)OC)N(C)C(=O)[C@H](NC(=O)[C@@H](C(C)C)N(C)C)C(C)C`, the GI50 in assay [1] was < 0.01 µM (active); in assay [2], 0.000184 µM (active); in assay [4], 0.000486 µM (active); in [5], 0.000366 µM; in [20], 3.51e-05 µM (active); in assay [6], < 0.01 µM (active). Moreover, the GI50 in [7] was 0.000125 µM (active); in assay [8], < 0.01 µM (active); in assay [9], 0.00039 µM (active); in assay [10], 0.000249 µM (active); in [11], 0.000439 µM (active); in [12], 0.0005 µM (active). Further, the GI50 in [13] was 0.000286 µM (active); in assay [14], > 77.6 µM (inactive); in assay [15], 0.00069 µM (active); in assay [16] it was 0.000121 µM (active); in [17] it was 5.9e-05 µM (active); in assay [19], 0.000681 µM (active).
For the molecule `OC/C=C/[C@H](OCc1ccccc1)[C@H](/C=C/CO)OCc1ccccc1`, the GI50 is 32.3 µM (inactive) in [1]; 44.9 µM (inactive) in [2]; > 100 µM (inactive) in assay [3]; 47.8 µM (inactive) in assay [4]; 34.8 µM in assay [5]; 50.4 µM (inactive) in assay [6]. The GI50 is 35.1 µM (inactive) in assay [7]; 33.1 µM (inactive) in assay [8]; 40.2 µM (inactive) in assay [9]; 24.5 µM (inactive) in assay [10]; 49.3 µM (inactive) in [11]; > 100 µM (inactive) in [12]. The GI50 in assay [13] was 46.2 µM (inactive); in assay [14] it was 23.7 µM (inactive); in [15], 35.8 µM (inactive); in assay [16] it was 30.3 µM (inactive); in assay [17], 57.8 µM (inactive); in assay [18], 20.1 µM (inactive). In assay [19], the GI50 was 42.5 µM (inactive).
For the molecule `Cc1n[nH]c(=O)n1/N=C/c1cccc(Cl)c1`, the GI50 in assay [1] was > 100 µM (inactive); in assay [2] it was > 100 µM (inactive); in [3], > 100 µM (inactive); in assay [4], > 100 µM (inactive); in [5], more than 100 µM; in assay [6] it was > 100 µM (inactive). Also, the GI50 was > 100 µM (inactive) in [7]; > 100 µM (inactive) in assay [8]; 63.7 µM (inactive) in assay [9]; 65.5 µM (inactive) in assay [10]; > 100 µM (inactive) in assay [11]; > 100 µM (inactive) in assay [12]. For the same molecule, the GI50 in assay [13] was 64.7 µM (inactive); in [14], > 100 µM (inactive); in [15], > 100 µM (inactive); in assay [16], > 100 µM (inactive); in assay [17], > 100 µM (inactive); in assay [18], > 100 µM (inactive).
As for `CC(=O)Oc1ccn2nc(C)c(Cc3c(C)nn4ccc(OC(C)=O)cc34)c2c1`, the GI50 in assay [1] was > 10 µM (inactive); in [2], > 100 µM (inactive); in assay [4] it was > 100 µM (inactive); in [5], more than 100 µM; in assay [20], 39.1 µM (inactive); in [6] it was > 100 µM (inactive). For the same molecule, the GI50 is > 100 µM (inactive) in [7]; > 10 µM (inactive) in assay [8]; > 100 µM (inactive) in assay [9]; 62.7 µM (inactive) in assay [10]; 98.2 µM (inactive) in assay [11]; > 100 µM (inactive) in [12]. The GI50 in assay [13] is > 100 µM (inactive); in assay [14], > 100 µM (inactive); in [15] it was > 100 µM (inactive); in assay [16] it was > 100 µM (inactive); in assay [17], 50.9 µM (inactive); in assay [18] it was 27.9 µM (inactive). Moreover, in [19], the GI50 is > 100 µM (inactive).
In the case of `COc1ccc(N/N=C/C2=CC(C)(C)C(C#N)(C#N)C(O)=C2C#N)cc1`, the GI50 in assay [1] is 27.8 µM (inactive); in assay [2], 38.5 µM (inactive); in assay [4] it was 47.4 µM (inactive); in [5] it was 14.1 µM; in assay [20], 37.7 µM (inactive); in assay [6], 34.3 µM (inactive). The GI50 was 39 µM (inactive) in assay [7]; 35.8 µM (inactive) in assay [8]; 41 µM (inactive) in [9]; 45.1 µM (inactive) in assay [10]; 40.4 µM (inactive) in assay [11]; 69.8 µM (inactive) in assay [12]. Also, the GI50 in assay [13] is 28.7 µM (inactive); in assay [14] it was 35.6 µM (inactive); in assay [15], 91.2 µM (inactive); in [16], 25.6 µM (inactive); in assay [17], 20.9 µM (inactive); in [18], 35.5 µM (inactive). Also, in assay [19], the GI50 was 46.9 µM (inactive).
In the case of `CCc1c(O)cc(=O)oc1-c1ccc(OC)c(OC)c1`, the GI50 in assay [1] was > 100 µM (inactive); in assay [2] it was > 100 µM (inactive); in assay [3], > 100 µM (inactive); in assay [4], > 100 µM (inactive); in assay [5], more than 100 µM; in [6], > 100 µM (inactive). Moreover, the GI50 in [7], in assay [8], in assay [9], in assay [10], in [11] and in assay [12] was > 100 µM (inactive) in each case. The GI50 in assay [13], in assay [14], in [15], in [16], in assay [17] and in [18] was > 100 µM (inactive) throughout. Also, in assay [19], the GI50 was > 100 µM (inactive).
